From patent US20260373175A1, “STABLE AST-3424 API PRODUCT, PREPARATION METHOD THEREFOR, AND STORAGE THEREOF” (ASCENTAWITS PHARMACEUTICALS, LTD., priority 2022, published 2026)
In brackets after ≈: the same amount, converted by molar mass. Entries after “also recorded” stand apart in the source; their conditions may differ.

Assays:
Type in all cases: physicochemical
[1] = Solubility test of AST-3424 in different solvents at 25 °C
Protocol: A proper amount of AST-3424 (hereinafter referred to as active pharmaceutical ingredient or API) was taken and placed into a proper container, a solvent was gradually added thereto, the mixture was uniformly shaken, the process of the solution changing from turbidity (excessive oil drops of AST-3424 exist) to clarification (AST-3424 is completely dissolved) was observed, the volume of the solvent for clarifying the mixed solution of AST-3424 was recorded, and the solubility was calculated.
In addition, water was further used for the experiment.

[2] = Stability of AST-3424 solutions (about 90 mg/mL) in different solvents, high-temperature destruction 40 °C, 3 days
Protocol: The AST-3424 solutions (contents were about 90 mg/mL) dissolved in different solvents were subjected to high-temperature destruction (40 °C, 3 days). The purity was detected. The destructed solutions were compared with samples not subjected to the destruction (40 °C, 3 days). The stability of AST-3424 in different solvents was examined.
Purity was determined by using an HPLC method:
Mobile phase: • A: 10 mmol/L ammonium acetate solution obtained by dissolving ammonium acetate in a mixed solvent of 95% water and 5% acetonitrile by volume ratio; and • B: 8 mmol/L ammonium acetate solution obtained by dissolving ammonium acetate in a mixed solvent of 95% acetonitrile and 5% water by volume ratio; and
A gradient elution was performed.

[3] = Long-term stability study at −20±5 °C and 5±3 °C away from light (HDPE bottle, LDPE bag, aluminum foil bag); settings: pure API, current limited stability data
From the text: (§1) The samples used for the stability study were inner-packaged in an HDPE bottle with a screw cap and outer-packaged in an LDPE bag with a pull button placed in a heat-sealing aluminum foil bag.
(§2) The water content (mass percentage), content, purity (chemical purity) and enantiomeric excess (e.e %) values were detected at 0, 1, 2, 3, 6, 9, 12, 18, 24, 36 and 42 months, respectively. The samples of batches 024101, 034101 and 044101 were used in the experiments.

[4] = Accelerated stability experiment at 25±2 °C and 60±5% RH away from light; settings: 25 °C, after 2 months
From the text: as §1, §2

[5] = Observation of viscosity of AST-3424 (FIG. 3); settings: neat AST-3424, FIG. 3
From the text: Therefore, it is inconvenient to transfer and sub-package it, and solvents are needed to reduce the viscosity thereof.

[6] = Choice of solvent during distillation in the preparation of AST-3424
From the text: In the preparation of the AST-3424, in order to remove the solvent, water, etc., used in the preparation and separation processes by distillation as much as possible, the applicant mixes the oily AST-3424 product separated and purified with various common solvents (ethyl acetate, ethanol, methanol, etc.) and performs distillation under reduced pressure after the mixture is heated at a lower temperature. […] Therefore, ethanol is ultimately used through initial confirmation.

[7] = Stability of AST-3424 solutions (about 90 mg/mL) in different solvents, high-temperature destruction 40 °C, 3 days; settings: dissolved in propylene glycol, compared with other solvents
[8] = absolute ethanol, 40 °C, 3 days
[9] = propylene glycol, 40 °C, 3 days

Degradation [4]: degraded rapidly | Purity [4]: less than 98%
Compound: C[C@H](OP(=O)(N1CC1)N1CC1)c1ccc([N+](=O)[O-])c(Oc2cccc(C(=O)N(C)C)c2)c1 [AST-3424, (S)-1-(3-(3-N,N-dimethylaminocarbonyl)phenoxy-4-nitrophenyl)-1-ethyl-N,N′bis(ethylene)phosphoramidate]
Phenomenon (solubility in words) ([1]; ethanol, table cell continues '(mutually soluble)'): good solubilities; also recorded: good solubility and stability; also recorded: Very soluble | Phenomenon (solubility in words) ([1]; ethyl acetate, table cell continues '(mutually soluble)'): Very soluble | solubility ([1]; organic solvent or mixture, ethanol): > 1000 mg/mL | solubility ([1]; organic solvent or mixture, ethyl acetate): > 1000 mg/mL | solubility ([1]; organic solvent or mixture, propylene glycol): > 100 mg/mL | Phenomenon (solubility in words) ([1]; propylene glycol, table cell continues 'soluble'): good solubilities; also recorded: good solubility and stability; also recorded: Freely | solubility ([1]; water): ~20 mg/mL (≈ 43.4 mM) | Phenomenon (solubility in words) ([1]; water, table cell continues 'soluble'): sparingly soluble; also recorded: poor solubility and stability | Chemical purity ([2]; 0 day (not subjected to destruction)): 99.3% | Stability in solvent ([2]; absolute ethanol): stable; also recorded: good solubility and stability | Chemical purity [2, 8]: 98.8% | Content of AST-3424 [2, 8]: 89.5 mg/mL | Stability in solvent ([2]; acetonitrile): stable | Chemical purity ([2]; acetonitrile, 40 °C, 3 days): 99.3% | Content of AST-3424 ([2]; acetonitrile, 40 °C, 3 days): 91.0 mg/mL | Stability in solvent ([2]; ethyl acetate): stable | Chemical purity ([2]; ethyl acetate, 40 °C, 3 days): 96.6% | Content of AST-3424 ([2]; ethyl acetate, 40 °C, 3 days): 96.1 mg/mL | Stability in solvent ([2]; propylene glycol): stable; also recorded: good solubility and stability | Chemical purity [2, 9]: 96.8% | Content of AST-3424 [2, 9]: 83.5 mg/mL | Stability in solvent ([2]; water): poor solubility and stability | Chemical purity ([2]; water, 40 °C, 3 days): 75.4% | Content of AST-3424 ([2]; water, 40 °C, 3 days): 89.2 mg/mL | Stability compared with AST-3424 ethanol solution [3]: better than that of the AST-3424 ethanol solution | Physical state / viscosity [5]: viscous oily substance | solubility ([6]; ethanol): almost infinitely dissolve | solubility ([6]; ethyl acetate): not high enough | solubility ([6]; methanol): good solubility | Viscosity [7]: obviously higher viscosity; also recorded: high viscosity
